From ChEMBL document CHEMBL1201862, “PubChem BioAssay data set” (2004)
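Protocol summary: plate cells (96-well), add compound at 5 concentrations, incubate 48 h, interpolate endpoints linearly. GI50: concentration for 50% inhibition of growth.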 Active and inactive are the calls of the source. No stated cut-off is given here; in the data, active = GI50 up to about 1.1 µM and inactive = higher.

What was measured:
Assay in all cases: NCI tumour cell line growth inhibition, 48 h
DU-145 = tested on: DU-145
MCF7 = tested on: MCF7
MDA-MB-231 = tested on: MDA-MB-231
DMS-273 = tested on: DMS-273
LXFL 529 = tested on: LXFL 529
BT-549 = tested on: BT-549
NCI/ADR-RES = tested on: NCI/ADR-RES

**Q.** `O=C1OC(c2ccccc2Br)=N/C1=C/c1ccccc1` was tested. Which GI50 (DU-145) did it give?
**A.** > 100 µM (inactive)

**Q.** And the GI50 (MCF7)?
**A.** 57.1 µM (inactive)

**Q.** And the GI50 (MDA-MB-231)?
**A.** 40.7 µM (inactive)

**Q.** How did the GI50 (DMS-273) turn out when `Cc1cc(N(CCC#N)CCC#N)ccc1/N=N/c1cc(Cl)ccc1Cl` was run?
**A.** 14.4 µM (inactive)

**Q.** What about the GI50 (LXFL 529) of the same compound?
**A.** 1.7 µM (inactive)

**Q.** Which results are given for `CCC(Sc1cc(Cl)c(C)cc1S(=O)(=O)Nc1nc(N)nc(N(C)C)n1)C(=O)O` (centres undefined)?
**A.** GI50 (BT-549): > 10 µM (inactive); GI50 (DU-145): > 10 µM (inactive); GI50 (MCF7): > 10 µM (inactive); GI50 (NCI/ADR-RES): > 10 µM (inactive)

**Q.** Which results are given for `Cc1nc2ccccc2cc1C[N+]12CN3CN(CN(C3)C1)C2`?
**A.** GI50 (BT-549): 19.3 µM (inactive); GI50 (DU-145): 26.2 µM (inactive); GI50 (MCF7): 4.29 µM (inactive); GI50 (MDA-MB-231): 16.4 µM (inactive); GI50 (NCI/ADR-RES): 22.4 µM (inactive)

**Q.** `CC(=O)N(C)SCC(NC(=O)C(Cc1ccccc1)NC(=O)OCc1ccccc1)C(=O)NC(Cc1ccccc1)C(=O)NC(Cc1cn(C=O)c2ccccc12)C(=O)NC(CCCCNC(=O)OCc1ccccc1)C(=O)NC(C(=O)NC(CSN(C)C(C)=O)C(=O)NO)C(C)OCc1ccccc1` (centres undefined) was tested. Which GI50 (BT-549) did it give?
**A.** > 100 µM (inactive)

**Q.** And the GI50 (DU-145)?
**A.** > 100 µM (inactive)

**Q.** And the GI50 (MCF7)?
**A.** > 100 µM (inactive)

**Q.** And the GI50 (MDA-MB-231)?
**A.** > 100 µM (inactive)

**Q.** And the GI50 (NCI/ADR-RES)?
**A.** > 100 µM (inactive)

**Q.** For `CC(C)(O)/C=C/C(=O)[C@](C)(O)[C@H]1[C@H](O)C[C@@]2(C)[C@@H]3CC=C4[C@@H](C[C@H](O)C(=O)C4(C)C)[C@]3(C)C(=O)C[C@]12C` [CUCURBITACIN D], which GI50 (DMS-273) is on record?
**A.** 0.034 µM (active)

**Q.** What about the GI50 (LXFL 529) of the same compound?
**A.** 0.073 µM (active)

**Q.** For `C=C(Br)CN(C)CC(=C)Br`, which GI50 (BT-549) is on record?
**A.** > 100 µM (inactive)

**Q.** And the GI50 (DU-145)?
**A.** > 100 µM (inactive)

**Q.** And the GI50 (MCF7)?
**A.** > 100 µM (inactive)

**Q.** What about the GI50 (MDA-MB-231) of the same compound?
**A.** > 100 µM (inactive)

**Q.** What about the GI50 (NCI/ADR-RES) of the same compound?
**A.** > 100 µM (inactive)

**Q.** With `O=C(O)CNC(=O)c1cccc2c(=O)c3ccccc3[nH]c12` as the compound, how does the GI50 (BT-549) read?
**A.** 91.8 µM (inactive)

**Q.** And the GI50 (DU-145)?
**A.** > 100 µM (inactive)

**Q.** And the GI50 (MCF7)?
**A.** > 100 µM (inactive)

**Q.** And the GI50 (MDA-MB-231)?
**A.** > 100 µM (inactive)

**Q.** What about the GI50 (NCI/ADR-RES) of the same compound?
**A.** > 100 µM (inactive)

**Q.** For `O=C(Nc1nc2ncn(CCO)c2c(=O)[nH]1)c1ccccc1`, which GI50 (DMS-273) is on record?
**A.** > 100 µM (inactive)

**Q.** And the GI50 (LXFL 529)?
**A.** > 100 µM (inactive)

**Q.** What does the source list for `CCC1C(=O)C[C@H]2[C@@H]3C(O)CC4=CC(=O)CC[C@]4(C)[C@H]3CC[C@]12C` (some centres undefined)?
**A.** GI50 (DU-145): > 50 µM (inactive); GI50 (MCF7): > 50 µM (inactive); GI50 (MDA-MB-231): > 50 µM (inactive); GI50 (NCI/ADR-RES): > 50 µM (inactive)

**Q.** For `CCCCCC[N+](C)(C)Cc1ccc(C[N+](C)(C)CCCCCC)cc1`, which GI50 (DMS-273) is on record?
**A.** 1.83 µM (inactive)

**Q.** And the GI50 (LXFL 529)?
**A.** 3.33 µM (inactive)

**Q.** Which GI50 (DU-145) does the source give for `COC(=O)C1(F)C(=O)NC(=O)NC1O` (centres undefined) here?
**A.** > 100 µM (inactive)

**Q.** What about the GI50 (MCF7) of the same compound?
**A.** 10.7 µM (inactive)

**Q.** And the GI50 (MDA-MB-231)?
**A.** > 100 µM (inactive)

**Q.** And the GI50 (NCI/ADR-RES)?
**A.** > 100 µM (inactive)

**Q.** For `COc1cccc(CCn2c(N)c(C#N)c3ccc([N+](=O)[O-])cc3c2=O)c1`, which GI50 (BT-549) is on record?
**A.** > 10 µM (inactive)

**Q.** What about the GI50 (DU-145) of the same compound?
**A.** > 46.5 µM (inactive)

**Q.** And the GI50 (MCF7)?
**A.** > 31.6 µM (inactive)

**Q.** What about the GI50 (MDA-MB-231) of the same compound?
**A.** > 46.5 µM (inactive)

**Q.** What about the GI50 (NCI/ADR-RES) of the same compound?
**A.** > 46.5 µM (inactive)

**Q.** How did the GI50 (BT-549) turn out when `CC1C2CC(C(C3C(=O)C4CC3C(C)(C)C4C)C2=O)C1(C)C` (centres undefined) was run?
**A.** > 100 µM (inactive)

**Q.** What about the GI50 (DU-145) of the same compound?
**A.** > 100 µM (inactive)

**Q.** And the GI50 (MCF7)?
**A.** > 100 µM (inactive)

**Q.** And the GI50 (MDA-MB-231)?
**A.** > 100 µM (inactive)

**Q.** Which results are given for `CC/C=C/C[C@H](O[Si](C)(C)C(C)(C)C)[C@H]1C[C@H]2O[C@H]([C@@H](O)C#C[Si](C)(C)C)C[C@H]2O1`?
**A.** GI50 (BT-549): 19.2 µM (inactive); GI50 (DU-145): 14.7 µM (inactive); GI50 (MCF7): 6.92 µM (inactive); GI50 (MDA-MB-231): 14.9 µM (inactive); GI50 (NCI/ADR-RES): 13.3 µM (inactive)

**Q.** Which GI50 (BT-549) does the source give for `CCCc1[nH]c2ccccc2c1-c1c(CCC)[nH]c2ccccc12` here?
**A.** 13.9 µM (inactive)

**Q.** What about the GI50 (DU-145) of the same compound?
**A.** 11.3 µM (inactive)

**Q.** What about the GI50 (MCF7) of the same compound?
**A.** 4.66 µM (inactive)

**Q.** What about the GI50 (MDA-MB-231) of the same compound?
**A.** 15.3 µM (inactive)

**Q.** And the GI50 (NCI/ADR-RES)?
**A.** 10.1 µM (inactive)

**Q.** Which GI50 (DMS-273) does the source give for `Cc1cc(O)nc(NNC(C#N)c2ccc(O)cc2)n1` (centres undefined) here?
**A.** > 100 µM (inactive)

**Q.** What about the GI50 (LXFL 529) of the same compound?
**A.** > 100 µM (inactive)

**Q.** For `CSc1nc2c(c(=O)n1C)N=C(c1ccc(Cl)cc1)CC(c1ccccc1)N2` (centres undefined), which GI50 (BT-549) is on record?
**A.** 24.9 µM (inactive)

**Q.** And the GI50 (DU-145)?
**A.** 24.7 µM (inactive)

**Q.** What about the GI50 (MCF7) of the same compound?
**A.** 14.2 µM (inactive)

**Q.** And the GI50 (MDA-MB-231)?
**A.** 11.9 µM (inactive)

**Q.** What about the GI50 (NCI/ADR-RES) of the same compound?
**A.** 17.4 µM (inactive)

**Q.** What does the source list for `CN(C)c1ccc(/C=C/c2ccnc3ccc4ccccc4c23)cc1`?
**A.** GI50 (BT-549): 37.5 µM (inactive); GI50 (DU-145): 44.1 µM (inactive); GI50 (MCF7): 0.0873 µM (active); GI50 (MDA-MB-231): 34.5 µM (inactive); GI50 (NCI/ADR-RES): 43.3 µM (inactive)

**Q.** `COc1ccc2cc(CN3CCC(C4CCN(Cc5ccc6cc(OC)ccc6c5)CC4)CC3)ccc2c1` was tested. Which GI50 (BT-549) did it give?
**A.** > 10 µM (inactive)

**Q.** And the GI50 (DU-145)?
**A.** 6.21 µM (inactive)

**Q.** What about the GI50 (MCF7) of the same compound?
**A.** 4.06 µM (inactive)

**Q.** And the GI50 (MDA-MB-231)?
**A.** 2.52 µM (inactive)

**Q.** What about the GI50 (NCI/ADR-RES) of the same compound?
**A.** 6.82 µM (inactive)

**Q.** `COc1cc([C@@H]2c3cc4c(cc3[C@@H](Nc3ccc(Cl)cc3C(=O)c3ccccc3Cl)[C@H]3COC(=O)[C@H]23)OCO4)cc(OC)c1OC` was tested. Which GI50 (DU-145) did it give?
**A.** 0.314 µM (active)

**Q.** And the GI50 (MCF7)?
**A.** 0.111 µM (active)

**Q.** What about the GI50 (MDA-MB-231) of the same compound?
**A.** 0.39 µM (active)

**Q.** What about the GI50 (NCI/ADR-RES) of the same compound?
**A.** 0.173 µM (active)

**Q.** Which results are given for `CCOC(=O)/C=C1\Oc2ccccc2C1(C)O` (centres undefined)?
**A.** GI50 (DMS-273): > 100 µM (inactive); GI50 (LXFL 529): > 100 µM (inactive)

**Q.** Which results are given for `CC(C)c1nccn1Cc1ccc(Cl)cc1Cl`?
**A.** GI50 (BT-549): 64.1 µM (inactive); GI50 (DU-145): 14.8 µM (inactive); GI50 (MCF7): 34.1 µM (inactive); GI50 (MDA-MB-231): 81.5 µM (inactive); GI50 (NCI/ADR-RES): 27 µM (inactive)

**Q.** With `CC1=CCC2CC1C(C(=O)c1c[nH]c3ccccc13)=NC2(C)C` (centres undefined) as the compound, how does the GI50 (BT-549) read?
**A.** 40 µM (inactive)

**Q.** And the GI50 (DU-145)?
**A.** > 100 µM (inactive)

**Q.** And the GI50 (MCF7)?
**A.** 54.6 µM (inactive)

**Q.** What about the GI50 (MDA-MB-231) of the same compound?
**A.** 51.9 µM (inactive)

**Q.** What about the GI50 (NCI/ADR-RES) of the same compound?
**A.** 59.3 µM (inactive)

**Q.** For `O=c1cnn(C/C=C\CO)c(=O)[nH]1`, which GI50 (DU-145) is on record?
**A.** > 100 µM (inactive)

**Q.** And the GI50 (MCF7)?
**A.** > 100 µM (inactive)

**Q.** What about the GI50 (MDA-MB-231) of the same compound?
**A.** > 100 µM (inactive)

**Q.** What about the GI50 (NCI/ADR-RES) of the same compound?
**A.** > 100 µM (inactive)
